Experimental data: PubChem BioAssay (NCI)
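1) Cells in 96-well plates. 2) Compound, 48 h, 5 concentrations. 3) Linear interpolation between surrounding doses. 4) Unreached endpoint = highest concentration. TGI marks complete inhibition of growth.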

What was measured:
Experiment in all cases: inhibition of tumour cell growth, NCI panel, 48 h
CCRF-CEM leukemia = tested on: CCRF-CEM leukemia
COLO 205 colon = tested on: COLO 205 colon
HS 578T breast = tested on: HS 578T breast
KM12 colon = tested on: KM12 colon
MDA-N = tested on: MDA-N
NCI-H23 lung = tested on: NCI-H23 lung
OVCAR-4 ovarian = tested on: OVCAR-4 ovarian
SNB-75 CNS = tested on: SNB-75 CNS
TK-10 renal = tested on: TK-10 renal
UACC-257 melanoma = tested on: UACC-257 melanoma

SMILES | TGI (CCRF-CEM leukemia) [µM] | TGI (COLO 205 colon) [µM] | TGI (HS 578T breast) [µM] | TGI (KM12 colon) [µM] | TGI (MDA-N) [µM] | TGI (NCI-H23 lung) [µM] | TGI (OVCAR-4 ovarian) [µM] | TGI (SNB-75 CNS) [µM] | TGI (TK-10 renal) [µM] | TGI (UACC-257 melanoma) [µM]
O=[N+]([O-])C(=C/c1cccc2ccccc12)/C(=C\c1cccc2ccccc12)[N+](=O)[O-] | 4.77 | > 21.7 | 17.1 | 16 | 8.25 | 4.36 | 7.06 | 21.8 | 4.65 | 5.44
CCOC(=O)/C=C\C(C#N)(C#N)N=Cc1ccsc1 | 1.02 | 3.4 | 48.4 | 36.5 | 24.5 | 29.9 | 19.2 | 27.8 | 4.63 | 20.9
Cc1cccc(CNc2ncnc3[nH]ncc23)c1 | > 100 | > 100 | > 100 | > 100 | > 100 | > 100 | > 100 | > 100 | > 100 | > 100
O=c1n(-c2ccccc2)c(=O)n2c(-c3ccccc3)c(-c3ccccc3)n12 | > 100 | > 100 | > 100 | > 100 | > 100 | > 100 | > 100 | > 100 | > 100 | > 100
FC(F)(F)c1cccnc1Sc1nc2ccccc2s1 | > 100 | > 100 | > 100 | > 100 | > 100 | > 100 | > 100 | > 100 | > 100 | > 100
CNC(=O)N1N[C@H](c2ccccc2)[C@@H]1c1ccccc1 | > 100 | 38.8 | > 100 | 45.2 | > 100 | 47.9 | > 100 | 92.2 | > 100 | > 100
C[C@@]1(OC(=O)c2cc([N+](=O)[O-])cc([N+](=O)[O-])c2)C[C@@H]2CCCC[C@@H]21 | > 100 | > 100 | > 100 | > 100 | > 100 | > 100 | > 100 | > 100 | > 100 | > 100
c1cncc(CSc2ncnc3nc[nH]c23)c1 | > 100 | > 100 | > 100 | > 100 | > 100 | > 100 | > 100 | > 100 | > 100 | > 100
CCCCN(C)C(=O)C1=C(C)NC(C)=C(C(=O)N(C)CCCC)C1 | > 100 | > 100 | > 100 | > 100 | > 100 | > 100 | > 100 | > 100 | > 100 | > 100
C=C[C@]1(O[Si](C)(C)C)C[C@@]2(C(=O)OCC)C(O)C(=O)N3CCc4cc(OC)c(OC)cc4[C@]312 (stereo not given in full) | > 100 | > 100 | > 100 | > 100 | > 100 | > 100 | > 100 | > 100 | > 100 | > 100
COc1ccc(NC(=O)C(=O)Cc2nc3ccc(C(=O)c4ccccc4)cc3[nH]c2=O)c([N+](=O)[O-])c1 | 61.4 | 40 | > 100 | 64 | > 100 | 65.4 | > 100 | 90.2 | > 100 | > 100
C[C@H](NC(=O)CNC(=O)CCCCCC(=O)NCC(=O)N[C@@H](C)C(=O)OCc1ccccc1)C(=O)OCc1ccccc1 | > 100 | > 100 | > 100 | > 100 | > 100 | > 100 | > 100 | > 100 | > 100 | > 100
O=C1C=C(C2=C(C3=CC(=O)c4ccccc4C3=O)C(=O)c3ccccc3C2=O)C(=O)c2ccccc21 | 1.43 | 17.3 | 40 | 30.8 | 5.65 | 19.7 | 17 | 35.3 | 21.8 | 25.4
CCOC(=O)/C=C/C1(CCOC(C)=O)CCCCC1 | > 10 | > 10 | > 10 | > 10 | > 10 | > 10 | > 10 | > 10 | > 10 | > 10
CSc1c(C#N)c(S)n(-c2ccc(Cl)cc2)c(=O)c1C#N | > 100 | > 100 | > 100 | > 100 | > 100 | > 100 | > 100 | > 100 | > 100 | > 100
O=c1cc(CNC2CC3CCC2C3)[nH]c(=O)[nH]1 (stereo not given) | > 100 | > 100 | > 100 | > 100 | > 100 | > 100 | > 100 | > 100 | > 100 | > 100
O/N=C1/CCCc2nonc21 | > 100 | > 100 | > 100 | > 100 | > 100 | > 100 | > 100 | > 100 | > 100 | > 100

SMILES | TGI (CCRF-CEM leukemia) [µM] | TGI (COLO 205 colon) [µM] | TGI (HS 578T breast) [µM] | TGI (KM12 colon) [µM] | TGI (MDA-N) [µM] | TGI (NCI-H23 lung) [µM] | TGI (OVCAR-4 ovarian) [µM] | TGI (SNB-75 CNS) [µM] | TGI (TK-10 renal) [µM] | TGI (UACC-257 melanoma) [µM]
C/C(=N\NC(=S)Nc1ccc([N+](=O)[O-])cc1)c1nc2ncccc2[nH]1 | 12.4 | 23.1 | 6.51 | > 100 | > 100 | 4.14 | 4.21 | 4.1 | 4.56 | 2.96
O=S(=O)(O)c1ccc2cc(N=Nc3c(O)ccc4ccccc34)ccc2c1 | > 100 | > 100 | > 100 | > 100 | > 100 | > 100 | > 100 | > 100 | > 100 | > 100
O=C(/C=C(\Nc1ccccc1O)c1ccc(Br)cc1)C(Cl)(Cl)Cl | 36.7 | 22.1 | 18.1 | 13.9 | 17.3 | 26.1 | 19.2 | 26.8 | 19.1 | 20.1
Cc1ccc(S(=O)(=O)N2CC(CCN)c3ccccc32)cc1 (stereo not given) | > 100 | 24.3 | 54.5 | > 100 | 11 | > 52.6 | > 100 | 26.5 | > 51.1 | 33.9
CC(=O)N(CC(=O)C(=O)NNc1ccoc1)c1ccc(Cl)cc1 | > 100 | > 100 | > 100 | > 100 | > 100 | > 100 | > 100 | > 100 | > 100 | > 100
C[C@H]1C[C@H]2[C@@H]3CCC4=CC(=O)C=C[C@]4(C)C3=CC[C@]2(C)[C@@]1(O)C(=O)CO | > 100 | > 100 | > 100 | > 100 | > 100 | > 100 | > 100 | > 100 | > 100 | > 100
CC(=O)O[C@@H]1[C@H]2[C@@H](OC(=O)c3ccccc3)[C@@H](C)C[C@]2(O)[C@H](OC(C)=O)[C@@]2(C)[C@@H]3C[C@@](C)(OC(C)=O)C[C@@H](OC(C)=O)[C@@]3(OC(C)=O)C[C@@]12C | > 10 | > 10 | > 10 | > 10 | > 10 | > 10 | > 10 | > 10 | > 10 | > 10
C=C1C2CCC3(CCC4C5(C)CCCC4(C=[N+](CCO)C5)C3C2)C1O (stereo not given) | > 100 | > 100 | > 100 | > 100 | > 100 | > 100 | > 100 | > 100 | > 100 | > 100
O=C(O)Cc1cccc2c(=O)c3cccc([N+](=O)[O-])c3[nH]c12 | > 100 | 39.4 | > 100 | > 100 | > 100 | > 100 | > 100 | > 100 | > 100 | > 100
CC(=O)NCCCCN(CCCNC(C)=O)C(=O)OCc1ccccc1 | > 100 | > 100 | > 100 | > 100 | > 100 | > 100 | > 100 | > 100 | > 100 | > 100
COC1=C2CC(C)CC(OC)C(OC(=O)CCCN)C(C)/C=C(\C)C(OC(N)=O)C(OC)/C=C\C=C(/C)C(=O)NC(=CC1=O)C2=O (stereo not given) | 3.59 | 9.48 | 40.7 | 25.7 | 20.7 | 14.4 | 20.4 | 36.3 | 20.2 | 17.7
c1ccc(COC2C3COC(O3)C(OCc3ccccc3)C2OCc2ccccc2)cc1 (stereo not given) | 40.6 | > 100 | > 100 | > 100 | > 100 | > 100 | > 100 | > 100 | > 100 | > 100
Cc1nc(N(C(C)C)C(C)C)c(C(C)C)o1 | > 100 | > 100 | > 100 | > 100 | > 100 | > 100 | > 100 | > 100 | > 100 | > 100
O=C(NCCCCCCCN1CCCCCCC1)C(C1CCCCC1)C1CCCCC1 | 46.9 | 8.64 | 51.5 | 27.5 | 21.8 | 28.5 | 25.4 | 23.1 | 25.6 | 4.79
Cc1ccc(S(=O)(=O)NC(=O)Nc2cc(Cl)c(S(N)(=O)=O)cc2S(N)(=O)=O)cc1 | > 100 | > 100 | > 100 | > 100 | > 100 | > 100 | > 100 | > 100 | > 100 | > 100
O=c1[nH]c2nc[nH]c2c(=O)n1C1CCCCC1 | > 100 | > 100 | > 100 | > 100 | > 100 | > 100 | > 100 | > 100 | > 100 | > 100
